Test [1] deals with Adenylate cyclase type 5 (Homo sapiens) (UniProt O95622). Kind of test: Compound was evaluated for the elicited effect on adenylate cyclase activity in homogenates of carp retina at 10 uM. Format: functional, tissue-based. Conditions: Cyprinus carpio.
For test [2], the species on record is Mus musculus. Description: Evaluated for audiogenic seizures in DBA/ 2 mice, in the protection against paroxysimal EEG at an interval of 30 minutes. Format: functional. The conditions noted are these: 0.5 h.
Test [3] relates to Papio papio. Description: Duration of protection for abolition of myoclonic responses to photic stimulation in the baboon (Papio papio) at 0.2 mg/kg; Duration of protection ranges from 180-300 min. In kind it is functional.
Test [4] is filed under the species Mus musculus. Kind of test: Evaluated for audiogenic seizures in DBA/ 2 mice, in the protection against paroxysimal EEG at an interval of 20 minutes. In kind it is functional.
Test [5] has as its system Papio papio. Kind of test: Duration of protection for abolition of myoclonic responses to photic stimulation in the baboon (Papio papio) at 0.5 mg/kg; Duration of protection ranges from 30-45 min. In kind it is functional.
The species entered for test [6] is Mus musculus. Description: Evaluated for audiogenic seizures in DBA/ 2 mice, in the protection against paroxysimal EEG at an interval of 60 minutes. Format: functional. The conditions noted are these: 1 h.
The test system of test [7] is Papio papio. Kind of test: Duration of protection for abolition of myoclonic responses to photic stimulation in the baboon (Papio papio) at 0.2 mg/kg. In kind it is functional.

In general, ED50 refers to the dose at which the effect has come halfway, by size or by number of responders.

Sequence of Adenylate cyclase type 5 (Homo sapiens) (O95622 whole entry, looked up): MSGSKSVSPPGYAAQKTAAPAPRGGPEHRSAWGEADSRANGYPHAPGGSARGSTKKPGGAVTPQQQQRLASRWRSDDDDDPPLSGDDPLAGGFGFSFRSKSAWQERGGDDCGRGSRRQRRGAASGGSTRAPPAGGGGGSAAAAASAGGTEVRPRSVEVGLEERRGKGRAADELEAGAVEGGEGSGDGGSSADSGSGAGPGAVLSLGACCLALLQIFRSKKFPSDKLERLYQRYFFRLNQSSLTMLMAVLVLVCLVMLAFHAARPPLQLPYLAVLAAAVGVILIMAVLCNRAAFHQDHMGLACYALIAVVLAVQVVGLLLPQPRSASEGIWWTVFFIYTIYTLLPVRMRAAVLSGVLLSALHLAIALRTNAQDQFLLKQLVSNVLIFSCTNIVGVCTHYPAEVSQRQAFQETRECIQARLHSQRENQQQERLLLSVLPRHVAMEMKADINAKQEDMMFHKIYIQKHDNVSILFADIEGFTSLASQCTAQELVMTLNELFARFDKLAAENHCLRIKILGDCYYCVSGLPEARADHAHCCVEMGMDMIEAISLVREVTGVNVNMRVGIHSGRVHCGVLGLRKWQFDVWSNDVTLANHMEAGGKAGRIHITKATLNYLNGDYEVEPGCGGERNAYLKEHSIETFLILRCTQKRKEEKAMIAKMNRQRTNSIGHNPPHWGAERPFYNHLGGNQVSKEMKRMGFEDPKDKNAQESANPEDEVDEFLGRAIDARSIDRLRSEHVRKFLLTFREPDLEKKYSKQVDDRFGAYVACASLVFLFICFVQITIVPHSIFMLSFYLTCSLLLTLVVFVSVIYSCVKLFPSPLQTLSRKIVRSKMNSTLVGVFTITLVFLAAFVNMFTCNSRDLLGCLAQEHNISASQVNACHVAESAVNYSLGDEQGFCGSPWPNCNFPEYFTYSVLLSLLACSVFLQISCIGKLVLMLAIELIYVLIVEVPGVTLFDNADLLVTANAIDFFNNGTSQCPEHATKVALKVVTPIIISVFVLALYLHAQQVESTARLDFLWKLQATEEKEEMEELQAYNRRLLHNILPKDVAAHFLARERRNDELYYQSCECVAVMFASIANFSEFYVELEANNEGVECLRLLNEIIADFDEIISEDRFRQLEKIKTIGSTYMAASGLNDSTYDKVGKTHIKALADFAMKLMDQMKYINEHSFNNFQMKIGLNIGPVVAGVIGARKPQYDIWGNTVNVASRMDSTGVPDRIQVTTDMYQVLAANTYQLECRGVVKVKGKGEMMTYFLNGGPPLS

As for `CCCN1CCc2cc(O)cc3c2[C@H]1Cc1ccc(O)c(O)c1-3`, in test [1], the Response is 43.4%. Also, the median effective dose (ED50) in the test filed under Mus musculus [2] stood at 0.72 mg/kg. The compound further gave a Duration with Papio papio [3] of 180 min.

Turning to `CN1CCc2cccc3c2[C@H]1Cc1ccc(O)c(O)c1-3` [APOMORPHINE], in the test listed under Mus musculus [4], it took a dose of 0.7 mg/kg to reach the 50% effect level (ED50). Further, in the test with Papio papio [5], the Duration is 30 min.

In the test filed under Mus musculus [6], `CC(C)C[C@H]1C(=O)N2CCC[C@H]2[C@]2(O)O[C@](NC(=O)[C@@H]3C=C4c5cccc6[nH]c(Br)c(c56)C[C@H]4N(C)C3)(C(C)C)C(=O)N12` [BROMOCRIPTINE] displayed a 50% effective dose (ED50) of 5 mg/kg.

The compound `CCCN1CCc2cccc3c2[C@H]1Cc1ccc(O)c(O)c1-3` [R-N-PROPYLNORAPOMORPHINE] displayed an ED50 in the test filed under Mus musculus [2] of 0.075 mg/kg. This compound also had a Duration in the test on Papio papio [7] of 180 min.

For the origin of these results see ChEMBL document CHEMBL1121670, “Aporphines. 34. (-)-2,10,11-Trihydroxy-N-n-propylnoraporphine, a novel dopaminergic aporphine alkaloid with anticonvulsant activity” (1981).
